In brackets after ≈: the same amount, converted by molar mass.
Tests used:
Bacillus anthracis = assay: Antimicrobial activity against Bacillus anthracis; type: functional
Plasmodium falciparum = assay: Antiplasmodial activity against Plasmodium falciparum; type: functional; settings: read-out: LD50 (the source's name)
Thymocyte = assay: Immunosuppressive activity in thymocytes by thymocyte proliferation assay; type: functional, cell-based
Lymphocyte = assay: Immunosuppressive activity in lymphocytes by mixed lymphocyte reaction assay; type: functional, cell-based

Structure (SMILES) | MIC (Bacillus anthracis) [µg/mL] | LC50 (Plasmodium falciparum) [µg/mL] | IC50 (Thymocyte) [nM] | IC50 (Lymphocyte) [nM]
CS[C@H]1SC[C@H]2C(=O)N(C)[C@@H](C(C)C)C(=O)OC[C@@H](NC(=O)c3cnc4ccccc4n3)C(=O)N[C@@H](C)C(=O)N(C)[C@@H]1C(=O)N(C)[C@@H](C(C)C)C(=O)OC[C@@H](NC(=O)c1cnc3ccccc3n1)C(=O)N[C@@H](C)C(=O)N2C [ECHINOMYCIN] | 1 (≈ 0.908 µM) | 0.007 (≈ 0.00636 µM) | – | –
C=C1CC[C@H]2[C@]3(C)C[C@@H](C=C(C)C)O[C@H]3CC[C@]2(C)[C@@H]1Cc1c(O)c(C)c(C)oc1=O [SUBGLUTINOL A] | – | – | 100 | 100
C=C1CC[C@H]2[C@]3(C)C[C@H](C=C(C)C)O[C@H]3CC[C@]2(C)[C@@H]1Cc1c(O)c(C)c(C)oc1=O [SUBGLUTINOL B] | – | – | 100 | 100
